Patent publication EP1057825A1, “ISOFLAVANE DERIVATIVES AND IMMUNOPOTENTIATING COMPOSITIONS CONTAINING THE SAME” (SHIONOGI & CO., LTD., priority 1998, dated 1999)

Legend:
[1] = system: mouse spleen cells; assay: Action on the blastogenesis of mouse spleen cells (ConA-stimulated, MTT reduction method); format: cell-based, BALB/c mouse; details: ConA 1 µg/ml, 3 days, rate against no test compound = one; for activity at 0.1 µg/mL / activity at 0.2 µg/mL / activity at 0.39 µg/mL / activity at 0.78 µg/mL / activity at 1.56 µg/mL / activity at 3.13 µg/mL / activity at 6.25 µg/mL: Mus musculus, 72 h
Experimental: Serial two-fold dilutions (100 µl/well) with 10% FBS of test compounds which are dissolved in a dimethyl sulfoxide (DMSO) solution are obtained on a 96-well microplate, and used as test samples.
The spleen of a BALB/c mouse is aseptically isolated, and gently ground on a wire mesh with dropwise addition of sterilzed saline. The filtrate is passed through a nylon mesh (Becton Dickinson; pore size: 70 µm), thereby preparing a unicellular suspension.
(§1) After being washed twice with sterilized saline, the spleen cells are suspended in RPMI1460 containing 10% FCS and containing 1 µg/ml of concanavalin A (abbreviated as ConA: Sigma, U.S.) as well as an antibiotic (Sigma: Antibiotic Antimycotic), and dispensed into a 96-well microplate, in which 100 µl each of diluted test samples are previously dispensed, in amounts of 3 × 10^5 cells/100 µl/well.
Thereafter, culturing is carried out under 5% carbon dioxide gas at 37°C for 3 days, and then the blastogenesis of lymphocytes is measured by an MTT reduction method [Mosmann T, Journal of Immunological Method, vol. 65, p. 55, 1983]. The blastogenesis rate can be quantitated as a rate against the blastogenesis of those not having test compounds added thereto, which is defined as one. The presence of an immunoactivating action can be determined if the blastogenesis rate exceeds one.
Serial two-fold dilutions (100 µl/well) with RPMI1640 (Nikken Biomedical Laboratory) containing 10% FBS (bovine fetal serum: Dainippon Pharmaceutical Co., Ltd.) of test compounds which were dissoloved in a dimethylsulfoxide (DMSO) solution were obtained on a 96-well microplate, and used as test samples.
The spleen of a BALB/c mouse (a 6 week-old female) was aseptically isolated, and gently ground on a wire mesh with dropwise addition of sterilzed saline. The filtrate was passed through a nylon mesh (Becton Dickinson; pore size: 70 µm), thereby preparing a unicellular suspension.
as §1, with “cells were” for “cells are”, “samples had” for “samples are”, “previously been” for “previously”, “of 3×10^5” for “of 3 × 10^5”
Thereafter, culturing was carried out under 5% carbon dioxide gas at 37°C for 3 days, and then the blastogenesis of lymphocytes was measured by an MTT reduction method [Mosmann T, Journal of Immunological Method, vol. 65, p. 55, 1983]. The results are shown in [Table 4].

[2] = system: mouse bone marrow cells; assay: Metabolism promoting action on mouse bone marrow cells (mitochondrial metabolism activity, MTT reduction method); format: cell-based, BALB/c mouse; details: 5 days, magnitude of metabolism, no test compound = one; for activity at 0.39 µg/mL / activity at 0.78 µg/mL / activity at 1.56 µg/mL / activity at 3.13 µg/mL / activity at 6.25 µg/mL / activity at 12.5 µg/mL: Mus musculus, Bone marrow cell, 120 h
From the text: The presence of an immunoactivating action can be determined if the magnitude of metabolism exceeds one, where the cellular metabolism of cells not having test compounds added thereto is defined as one.

[3] = concentration of additions in medium 0.1 μg/ml
[4] = concentration of additions in medium 0.2 μg/ml
[5] = concentration of additions in medium 0.39 μg/ml
[6] = concentration of additions in medium 0.78 μg/ml
[7] = concentration of additions in medium 1.56 μg/ml
[8] = concentration of additions in medium 3.13 μg/ml
[9] = concentration of additions in medium 6.25 μg/ml
[10] = Test compound concentration 0.39 µg/ml
[11] = Test compound concentration 0.78 µg/ml
[12] = Test compound concentration 1.56 µg/ml
[13] = Test compound concentration 3.13 µg/ml
[14] = Test compound concentration 6.25 µg/ml
[15] = Test compound concentration 12.5 µg/ml

Molecule	activity at 0.1 µg/mL [1, 3] [%]	activity at 0.2 µg/mL [1, 4] [%]	activity at 0.39 µg/mL [1, 5] [%]	activity at 0.78 µg/mL [1, 6] [%]	activity at 1.56 µg/mL [1, 7] [%]	activity at 3.13 µg/mL [1, 8] [%]	activity at 6.25 µg/mL [1, 9] [%]	activity at 0.39 µg/mL [2, 10] [%]	activity at 0.78 µg/mL [2, 11] [%]	activity at 1.56 µg/mL [2, 12] [%]	activity at 3.13 µg/mL [2, 13] [%]	activity at 6.25 µg/mL [2, 14] [%]	activity at 12.5 µg/mL [2, 15] [%]	also measured
3-(2,4-dimethoxy-3-(3-methyl-2-butenyl)phenyl)-3,4-dihydro-5-hydroxy-7-methoxy-6-(3-methyl-2- butenyl)-2H-1-benzopyran [A-6]	–	–	–	–	–	–	–	–	–	–	–	–	–	blastogenesis rate [1, 3]: 1.12; blastogenesis rate [1, 4]: 1.05; blastogenesis rate [1, 5]: 1.12; blastogenesis rate [1, 6]: 1.26; blastogenesis rate [1, 7]: 1.55; blastogenesis rate [1, 8]: 2.46; blastogenesis rate [1, 9]: 3.28; metabolism activity of mouse bone marrow cells [2, 10]: 0.97; metabolism activity of mouse bone marrow cells [2, 11]: 1.05; metabolism activity of mouse bone marrow cells [2, 12]: 1.20; metabolism activity of mouse bone marrow cells [2, 13]: 1.52; metabolism activity of mouse bone marrow cells [2, 14]: 0.77; metabolism activity of mouse bone marrow cells [2, 15]: 0.51
COc1c(CC=C(C)C)c(O)cc2c1CC(c1ccc(O)c(CC=C(C)C)c1O)CO2 (stereo not shown) [A-1, 4-[3,4-dihydro-7-hydroxy-5-methoxy-6-(3-methyl-2-butenyl)-2H-1-benzopyran-3-yl]-2-(3-methyl-2-butenyl)-1,3-benzenediol]	113	109	129	157	188	225	171	114	101	93	127	198	58	–
COc1ccc(C2COc3cc(OC)c(CC=C(C)C)c(OC)c3C2)c(OC)c1CC=C(C)C (stereo not shown) [A-3, 3-(2,4-dimethoxy-3-(3-methyl-2-butenyl)phenyl)-3,4-dihydro-5,7-dimethoxy-6-(3-methyl-2-butenyl)-2H-1-benzopyran]	98	88	88	79	83	120	246	111	108	114	114	111	62	–
COc1ccc(C2COc3cc(OC)c(CC=C(C)C)c(OC)c3C2)c(O)c1CC=C(C)C (stereo not shown) [A-4, 3-(2-hydroxy-4-methoxy-3-(3-methyl-2-butenyl)-phenyl)-3,4-dihydro-5,7-dimethoxy-6-(3-methyl-2-butenyl)-2H-1-benzopyran]	105	101	109	113	155	231	375	107	107	121	132	133	58	–
COc1cc2c(c(OC)c1CC=C(C)C)CC(c1ccc(O)c(CC=C(C)C)c1OC)CO2 (stereo not shown) [A-5, 3-(4-hydroxy-2-methoxy-3-(3-methyl-2-butenyl)-phenyl)-3,4-dihydro-5,7-dimethoxy-6-(3-methyl-2-butenyl)-2H-1-benzopyran]	101	96	107	111	118	209	239	116	120	138	146	55	53	–
COc1ccc(C2COc3cc(O)c(CC=C(C)C)c(OC)c3C2)c(O)c1CC=C(C)C (stereo not shown) [A-7, 3-(2-hydroxy-4-methoxy-3-(3-methyl-2-butenyl)-phenyl)-3,4-dihydro-5-methoxy-7-hydroxy-6-(3-methyl-2-butenyl)-2H-1-benzopyran]	113	107	132	161	195	293	408	103	112	139	152	51	51	–
COc1c(C2COc3cc(O)c(CC=C(C)C)c(OC)c3C2)ccc(O)c1CC=C(C)C (stereo not shown) [A-8, 3-(4-hydroxy-2-methoxy-3-(3-methyl-2-butenyl)-phenyl)-3,4-dihydro-5-methoxy-7-hydroxy-6-(3-methyl-2-butenyl)-2H-1-benzopyran]	111	99	112	122	103	34	23	113	127	161	156	50	51	–
